The text below walks through data of ChEMBL document CHEMBL5584246, “Novel dihydropyrimidines as promising EGFR & HER2 inhibitors: Insights from experimental and computational studies” (Eur J Med Chem, 2024).

For one data set, the system named is MCF7. Briefly: Cytotoxicity against human MCF7 cells assessed as inhibition of cell growth measured after 3 days by MTT assay. The class given is functional, cell-based. As to conditions: MCF7, 72 h. In general terms: Formazan colour is commonly taken as a measure of viable cells.
The nature of data set [1]: Cytotoxicity against African green monkey Vero cells assessed as inhibition of cell growth measured after 3 days by MTT assay. The format is toxicity, cell-based. As to conditions: African green monkey (Chlorocebus sabaeus).
Data set [2] can be described thus: Inhibition of HER2 expression in human MCF7 cells assessed as positive expression region (M2) at 100 nM incubated for 24 hrs by flow cytometry analysis (reference value: 99.09%). The class given is functional.
Data set [3] is described as follows: Inhibition of EGFR expression in human MCF7 cells assessed as positive expression region (M2) at 100 nM incubated for 24 hrs by flow cytometry analysis (reference value: 99.36%). The class given is functional. (A flow cytometer gives signals particle by particle.)
Data set [4] is described as follows: Inhibition of HER2 expression in human MCF7 cells assessed as negative expression region (M1) at 100 nM incubated for 24 hrs by flow cytometry analysis (reference value: 0.98%). The format is functional.
The nature of data set [5]: Inhibition of EGFR expression in human MCF7 cells assessed as negative expression region (M1) at 100 nM incubated for 24 hrs by flow cytometry analysis (reference value: 0.66%). The format is functional.

Broadly, the IC50 is the concentration that inhibits the measured activity by half. With `COc1ccc(NC(=O)C2=C(C)NC(=S)NC2c2c[nH]c3ccccc23)c(OC)c1` (centres undefined), the IC50 in the data set on MCF7 amounted to 29.4 µM. Further, the concentration for half-maximal inhibition (IC50) at 3 days in data set [1] was 50.3 µM.
Regarding `COc1ccc(NC(=O)C2=C(C)NC(=O)NC2c2ccc(Br)cc2)c(OC)c1` (centres undefined), the IC50 with MCF7 came to 31.6 µM. Besides, the half-maximal inhibitory concentration (IC50) at 3 days in data set [1] is 49.4 µM.
On to `COc1ccc(NC(=O)C2=C(C)NC(=O)NC2c2ccc(N(C)C)cc2)c(OC)c1` (centres undefined), for which, in the data set on MCF7, the IC50 was determined as 19.5 µM. In addition, the IC50 at 3 days in data set [1] is 53.1 µM.
In the same order, the values of `COc1ccc(NC(=O)C2=C(C)NC(=S)NC2c2ccc(O)c(OC)c2)c(OC)c1` (centres undefined) are 20.3 µM and 42.5 µM.
For the molecule `COc1ccc(NC(=O)C2=C(C)NC(=O)NC2c2ccccc2)c(OC)c1` (centres undefined), in the data set with MCF7, the half-maximal inhibitory concentration (IC50) is 38.2 µM. Moreover, the concentration for half-maximal inhibition (IC50) at 3 days in data set [1] amounted to 60.4 µM.
The corresponding values for `COc1ccc(NC(=O)C2=C(C)NC(=O)NC2c2ccc(Cl)cc2Cl)c(OC)c1` (centres undefined) are 32.4 µM and 63.5 µM.
In the same order, the values of `COc1ccc(NC(=O)C2=C(C)NC(=S)NC2c2ccco2)c(OC)c1` (centres undefined) are 38.3 µM and 45.5 µM.
With `COc1ccc(NC(=O)C2=C(C)NC(=O)NC2/C=C\c2ccccc2)c(OC)c1` (centres undefined), in the data set on MCF7, the IC50 worked out at 19.3 µM. For the same molecule, the IC50 at 3 days in data set [1] came out at 30.4 µM.
In the same order, the values of `COc1ccc(NC(=O)C2=C(C)NC(=S)NC2c2ccc(Cl)cc2)c(OC)c1` (centres undefined) are 38.7 µM and 48.3 µM.
`COc1ccc(NC(=O)C2=C(C)NC(=S)NC2c2ccc(O)cc2)c(OC)c1` (centres undefined): the concentration for half-maximal inhibition (IC50) with MCF7 was 28.6 µM. Further, in data set [1], the IC50 at 3 days was 40 µM.
As for `COc1ccc(NC(=O)C2=C(C)NC(=O)NC2c2cccc(Br)c2)c(OC)c1` (centres undefined), the IC50 in the data set with MCF7 came out at 31.2 µM. The concentration for half-maximal inhibition (IC50) at 3 days in data set [1] was 48.1 µM.
As to `COc1ccc(NC(=O)C2=C(C)NC(=S)NC2c2cccc(O)c2)c(OC)c1` (centres undefined), the IC50 in the data set with MCF7 is 34.8 µM. In addition, the half-maximal inhibitory concentration (IC50) at 3 days in data set [1] worked out at 69.2 µM.
Turning to `COc1ccc(NC(=O)C2=C(C)NC(=O)NC2c2ccc(C)cc2)c(OC)c1` (centres undefined), in the data set on MCF7, the 50% inhibitory concentration (IC50) came to 33.5 µM. In addition, the half-maximal inhibitory concentration (IC50) at 3 days in data set [1] came to 60 µM.
In the same order, the values of `COc1ccc(NC(=O)C2=C(C)NC(=S)NC2/C=C\c2ccccc2)c(OC)c1` (centres undefined) are 24.5 µM and 47.3 µM.
The corresponding values for `COc1ccc(NC(=O)C2=C(C)NC(=O)NC2c2ccccc2[N+](=O)[O-])c(OC)c1` (centres undefined) are 40.1 µM and 55.3 µM.
The corresponding values for `COc1ccc(NC(=O)C2=C(C)NC(=O)NC2)c(OC)c1` are 81.5 µM and 87.2 µM.
Regarding `COc1ccc(NC(=O)C2=C(C)NC(=O)NC2c2ccc(O)cc2)c(OC)c1` (centres undefined), the IC50 in the data set with MCF7 was 29.3 µM. The IC50 at 3 days in data set [1] turned out to be 55.2 µM.
For the molecule `CCOc1cc(C2NC(=O)NC(C)=C2C(=O)Nc2ccc(OC)cc2OC)ccc1O` (centres undefined), the half-inhibitory concentration (IC50) with MCF7 is 21 µM. Also, in data set [1], the IC50 at 3 days came to 58.2 µM.
On to `COc1ccc(NC(=O)C2=C(C)NC(=S)NC2c2ccc(N(C)C)cc2)c(OC)c1` (centres undefined), for which the concentration for half-maximal inhibition (IC50) in the data set on MCF7 amounted to 25.1 µM. For the same molecule, the IC50 at 3 days in data set [1] is 53.1 µM.
In the same order, the values of `COc1ccc(C2NC(=S)NC(C)=C2C(=O)Nc2ccc(OC)cc2OC)cc1` (centres undefined) are 28.1 µM and 32.8 µM.
Consider `COc1ccc(NC(=O)C2=C(C)NC(=O)NC2c2c[nH]c3ccccc23)c(OC)c1` (centres undefined), for which, in the data set on MCF7, the IC50 turned out to be 20.2 µM. Further, the concentration for half-maximal inhibition (IC50) at 3 days in data set [1] came out at 42.6 µM.
In the case of `CCOc1cc(C2NC(=S)NC(C)=C2C(=O)Nc2ccc(OC)cc2OC)ccc1O` (centres undefined), in the data set with MCF7, the IC50 came to 25.3 µM. The half-maximal inhibitory concentration (IC50) at 3 days in data set [1] was 57.4 µM.
The corresponding values for `COc1ccc(NC(=O)C2=C(C)NC(=O)NC2c2ccco2)c(OC)c1` (centres undefined) are 27.4 µM and 62.4 µM.
With `COc1ccc(NC(=O)C2=C(C)NC(=O)NC2c2ccccc2O)c(OC)c1` (centres undefined), the concentration for half-maximal inhibition (IC50) in the data set on MCF7 was 30.1 µM. Further, the concentration for half-maximal inhibition (IC50) at 3 days in data set [1] came to 45.3 µM.
The corresponding values for `COc1ccc(NC(=O)C2=C(C)NC(=S)NC2c2ccc(Br)cc2)c(OC)c1` (centres undefined) are 37.5 µM and 61.2 µM.
The corresponding values for `COc1ccc(NC(=O)C2=C(C)NC(=S)NC2c2ccc(C)cc2)c(OC)c1` (centres undefined) are 38.2 µM and 53.6 µM.
In the same order, the values of `COc1ccc(NC(=O)C2=C(C)NC(=S)NC2c2ccccc2O)c(OC)c1` (centres undefined) are 32.1 µM and 60.4 µM.
As for `COc1ccc(C2NC(=O)NC(C)=C2C(=O)Nc2ccc(OC)cc2OC)cc1` (centres undefined), in the data set on MCF7, the IC50 amounted to 24.3 µM. The IC50 at 3 days in data set [1] came out at 56.2 µM.
The term inhibition denotes the change of the read-out against control, counted positive when it falls. Turning to `CS(=O)(=O)CCNCc1ccc(-c2ccc3ncnc(Nc4ccc(OCc5cccc(F)c5)c(Cl)c4)c3c2)o1` [LAPATINIB], the inhibition at 0.1 µM in data set [2] amounted to 7.15%; in data set [3], 5.88%; in data set [4], 93%; in data set [5] it was 94.3%. The 50% inhibitory concentration (IC50) in the data set on MCF7 was determined as 3.38 µM. Besides, the IC50 at 3 days in data set [1] worked out at 19.3 µM.
In the case of `COc1ccc(NC(=O)C2=C(C)NC(=O)NC2c2cccc(Cl)c2)c(OC)c1` (centres undefined), in the data set on MCF7, the IC50 turned out to be 38.2 µM. Also, in data set [1], the IC50 at 3 days amounted to 73.4 µM.
The corresponding values for `COc1ccc(NC(=O)C2=C(C)NC(=O)NC2c2cccc(O)c2)c(OC)c1` (centres undefined) are 30.4 µM and 55.7 µM.
As to `COc1ccc(NC(=O)C2=C(C)NC(=O)NC2c2ccc(Cl)cc2)c(OC)c1` (centres undefined), the IC50 with MCF7 came to 32.4 µM. For the same molecule, in data set [1], the concentration for half-maximal inhibition (IC50) at 3 days stood at 62.7 µM.
In the same order, the values of `COc1ccc(NC(=O)C2=C(C)NC(=S)NC2c2ccccc2)c(OC)c1` (centres undefined) are 45.3 µM and 53.4 µM.
The corresponding values for `COc1ccc(NC(=O)C2=C(C)NC(=S)NC2c2ccc(OC)c(OC)c2)c(OC)c1` (centres undefined) are 17.3 µM and 43.9 µM.
Regarding `COc1ccc(NC(=O)C2=C(C)NC(=O)NC2c2ccc(O)c(OC)c2)c(OC)c1` (centres undefined), in the data set on MCF7, the IC50 was determined as 16.1 µM. The IC50 at 3 days in data set [1] came to 42.9 µM.
